Measurements: patent US10301630B2, “Methods and compositions for unsilencing imprinted genes” (The University of North Carolina at Chapel Hill, priority 2010, dated 2019)
Where two headings read alike, the source gives them in different places.

Test system: paternal Ube3a-YFP allele
Test: High-content imaging of paternal Ube3a-YFP unsilencing in primary cortical neurons
Format: cell-based, mouse
Settings: 72 h; for EC50: unsilencing paternal Ube3a-YFP; for Potency EC20 / EC20 / Potency EC20 (nM): 1 nM to 30 μM; for EC20: read-out: Potency EC20; for unsilencing of paternal Ube3a-YFP in dose-response experiments: cultured Ube3a m+/pYFP neurons
Description: In all screening assays, primary cortical neurons from Ube3a-YFP mice are isolated from embryonic day 15.5 animals, and the genotype of animals is determined to identify mice that encode the Ube3a-YFP transgene on the paternal allele. Freshly isolated cortical neurons are seeded into 384 well plates and cultured for 7 days. At day in vitro seven, screening is performed using multiple chemical libraries and compound concentration of 10 μM in 0.2% DMSO vehicle. After 72 h of drug exposure (run in quadruplicate wells), neurons are fixed with 4% para formaldehyde and processed for immunofluorescence using an anti-GFP-Alexa 488 conjugated antibody to enhance the signal of Ube3a-YFP in neurons. For image analyses, individual wells of immunofluorescence-processed plates are imaged fro DAPI and GFP fluorescence using the BD-Pathway 855 high-content imaging microscope. Ube3a-YFP fluorescence intensities in individual neurons are determined in drug-treated wells and normalized to 0.2% DMSO-treated (i.e., vehicle control) wells using custom written macros and algorithms using NIH Image J and Arrayscan Cell Profiler software programs. These image analyses enable masking of nuclei in individual neurons and determination of Ube3a-YFP fluorescence intensity in the nuclei of individual neurons.
For these studies, DIV 7 primary neurons encoding paternal Ube3a-YFP are dose treated with hit compounds across seven orders of magnitude in full and half log molar concentrations (3 pM to 30 μM). Ube3a-YFP fluorescence intensities in living neurons are determined again by high-content imaging microscopy after 72 h treatments. The dose response results are analyzed by least squares sigmoidal dose-response curve fitting models using Graphpad Prism 5.0 (Graphpad Software, Inc.). The calculated EC50 values (potencies) and Y value top plateau (estimated efficacies or Emax) enable comparative analyses of the relative potency and efficacy of the identified compounds.
Primary cortical neurons were isolated from E13.5-16.5 Ube3a-YFP mice. Screening was performed in quadruplicate at DIV7 using multiple chemical libraries and a compound concentration of 10 μM in 0.2% DMSO vehicle. After 72 h of drug exposure, neurons were fixed with 4% paraformaldehyde in PBS for 35 min, permeabilized with 0.3% Triton X-100 in PBS on ice for 30 min, and blocked by 5% goat serum with 0.1% Triton X-100 in PBS at room temperature for 1 hr. Cells were incubated with a rabbit polyclonal antibody to GFP (1:1000, Novus Biologicals, NB600-308) at room temperature for 1 hr and then incubated with Alexa Fluor 488 goat antibody to rabbit IgG (1:200, Invitrogen, A11008) and DAPI (1:10,000, Invitrogen, D-1306) at room temperature for 30 min. Individual wells of immunofluorescence-processed plates were imaged for DAPI or Alexa 488 fluorescence using the BD Pathway 855 high-content imaging microscope with a 488 excitation/515 long pass filter. Antibody-enhanced UBE3A-YFP fluorescence intensities were determined from individual neurons in drug-treated wells and normalized to neurons in wells treated with 0.2% DMSO (vehicle control). Analyses were performed with custom macros and algorithms using NIH Image J and Arrayscan Cell Profiler software programs (Thermo Scientific/Cellomics). These image analyses enabled masking of nuclei in individual neurons and determination of UBE3A-YFP fluorescence intensities in the nuclei of individual neurons (FIG. 16).
DIV7 primary neurons from Ube3a^m+/pYFP mice were dose-treated for 72 h with topoisomerase I and II inhibitors in ten point dose-responses in full and half log molar concentrations (1 nM to 30 μM). Neurons were fixed, processed for immunofluorescence, and UBE3A-YFP fluorescence intensities were again determined by high-content imaging microscopy.

[1] = Table 1, Ube3a-YFP fluorescence intensity above control cells (0.2% DMSO treated), cortical neurons
[2] = Table 1, cortical neurons, read-out: EC50
[3] = Table 3, unsilencing the paternal allele of Ube3a-YFP in cultured neurons
[4] = Mus musculus, Cortical neurone, Table 1, Ube3a-YFP fluorescence intensity above control cells (0.2% DMSO treated), cortical neurons, read-out: Efficacy Emax (fold over control)
[5] = Mus musculus, Cortical neurone, Table 1, cortical neurons, read-out: EC50
[6] = Mus musculus, Neuron, Table 3, unsilencing the paternal allele of Ube3a-YFP in cultured neurons
[7] = Mus musculus, Neuron, Table 3, unsilencing the paternal allele of Ube3a-YFP in cultured neurons, read-out: Efficacy Emax (fold over vehicle)

## CCc1c2c(nc3ccc(O)cc13)-c1cc3c(c(=O)n1C2)COC(=O)[C@]3(O)CC [7-Ethyl-10-Hydroxy-CPT]
[1]
  Efficacy Emax (fold over control): 2.00 ± 0.09 fold over control
[2]
  EC50: 33 ± 1.3 nM
[3]
  Efficacy Emax (fold over vehicle): 1.99 ± 0.06 fold over vehicle
  Potency EC20: 11 ± 3.2 nM

## CCc1c2c(nc3ccccc13)-c1cc3c(c(=O)n1C2)COC(=O)[C@]3(O)CC [7-Ethyl-CPT, 7-Ethyl-Camptothecin]
[1]
  Efficacy Emax (fold over control): 1.68 ± 0.05 fold over control
[2]
  EC50: 49 ± 1.3 nM
[3]
  Efficacy Emax (fold over vehicle): 1.70 ± 0.04 fold over vehicle
  Potency EC20: 7.2 ± 2.3 nM

## CC[C@@]1(O)C(=O)OCc2c1cc1n(c2=O)Cc2cc3cc(O)ccc3nc2-1 [10-Hydroxy-CPT]
[1]
  Efficacy Emax (fold over control): 1.68 ± 0.06 fold over control
[2]
  EC50: 40 ± 1.4 nM
[3]
  Efficacy Emax (fold over vehicle): 1.82 ± 0.08 fold over vehicle
  Potency EC20: 14 ± 5.7 nM

## COc1cc(NS(C)(=O)=O)ccc1Nc1c2ccccc2nc2ccccc12 [Amsacrine]
[4]
  maximal fold induction: 1.65 ± 0.05
[5]
  EC50: 28 ± 10 nM
[6]
  EC20: 27 ± 5.2 nM
[7]
  maximal fold induction: 1.74 ± 0.06

## CC[C@@]1(O)C(=O)OCc2c1cc1n(c2=O)Cc2c-1nc1ccccc1c2CCNC(C)C [Belotecan (CKD602), Belotecan]
[4]
  maximal fold induction: 1.85 ± 0.04
[5]
  EC50: 18 ± 1.1 nM
[6]
  EC20: 19 ± 4.4 nM
[7]
  maximal fold induction: 1.88 ± 0.05

## CC[C@@]1(O)C(=O)OCc2c1cc1n(c2=O)Cc2cc3ccccc3nc2-1 [Camptothecin (CPT), Camptothecin]
[4]
  maximal fold induction: 1.66 ± 0.06
[5]
  EC50: 32 ± 1.3 nM
[6]
  EC20: 21 ± 3.8 nM
[7]
  maximal fold induction: 2.11 ± 0.05

## C[C@@H](CN1CC(=O)NC(=O)C1)N1CC(=O)NC(=O)C1 [Dexrazoxane (ICRF-187), Dexrazoxane]
[6]
  EC20: 20500 ± 1450 nM
[7]
  maximal fold induction: 1.82 ± 0.05
  unsilencing of paternal Ube3a-YFP in dose-response experiments: unsilenced the paternal Ube3a-YFP allele

## COc1cc([C@@H]2c3cc4c(cc3[C@@H](O[C@@H]3O[C@@H]5CO[C@@H](C)O[C@H]5[C@H](O)[C@H]3O)[C@H]3COC(=O)[C@H]23)OCO4)cc(OC)c1O [Etoposide]
[6]
  EC20: 1600 ± 980 nM
[7]
  maximal fold induction: 1.68 ± 0.04
  unsilencing of paternal Ube3a-YFP in dose-response experiments: unsilenced the paternal Ube3a-YFP allele

## CC[C@@]1(O)C(=O)NCc2c1cc1n(c2=O)Cc2cc3ccccc3nc2-1 [Lactam E ring-CPT (inactive), Lactam E ring-CPT]
[3]
  Efficacy Emax (fold over vehicle): inactive
  Potency EC20 (nM): inactive
  unsilencing of paternal Ube3a-YFP in dose-response experiments: failed to unsilence the paternal Ube3a-YFP allele

## COc1cc2c3c(n(CCCNCCO)c(=O)c2cc1OC)-c1cc2c(cc1C3=O)OCO2 [NSC706744]
[1]
  Efficacy Emax (fold over control): 1.76 ± 0.03 fold over control
[2]
  EC50: 6.2 ± 2 nM
[3]
  Efficacy Emax (fold over vehicle): 1.84 ± 0.07 fold over vehicle
  Potency EC20: 11 ± 3.2 nM

## COc1cc2c3c(n(CCCN4CCOCC4)c(=O)c2cc1OC)-c1cc2c(cc1C3=O)OCO2 [NSC724998]
[1]
  Efficacy Emax (fold over control): 1.65 ± 0.03 fold over control
[2]
  EC50: 12 ± 4 nM
[3]
  Efficacy Emax (fold over vehicle): 1.69 ± 0.03 fold over vehicle
  Potency EC20: 14 ± 2.2 nM

## COc1cc2c3c(n(CCCn4ccnc4)c(=O)c2cc1OC)-c1cc2c(cc1C3=O)OCO2 [NSC725776]
[1]
  Efficacy Emax (fold over control): 1.82 ± 0.05 fold over control
[2]
  EC50: 9.2 ± 2 nM
[3]
  Efficacy Emax (fold over vehicle): 1.76 ± 0.03 fold over vehicle
  Potency EC20: 10 ± 1.6 nM

## CC[C@@]1(O)C(=O)OCc2c1cc1n(c2=O)Cc2cc3c([N+](=O)[O-])cccc3nc2-1 [Rubitecan (9-Nitro-CPT), Rubitecan]
[4]
  maximal fold induction: 2.07 ± 0.08
[5]
  EC50: 43 ± 9.1 nM
[6]
  EC20: 62 ± 18 nM
[7]
  maximal fold induction: 2.09 ± 0.09

## CC[C@@]1(O)C(=O)OCc2c1cc1n(c2=O)Cc2c-1nc1ccc(O)cc1c2[Si](C)(C)C(C)(C)C [Silatecan (DB67), Silatecan]
[4]
  maximal fold induction: 1.71 ± 0.06
[5]
  EC50: 2640 ± 95 nM
[6]
  EC20: 2240 ± 171 nM
[7]
  maximal fold induction: 1.65 ± 0.05

## ICRF-193
Table 1, cortical neurons
  EC50: 131 ± 13 nM
[3]
  Potency EC20 (nM): 205 ± 70^ nM
  unsilencing of paternal Ube3a-YFP in dose-response experiments: unsilenced the paternal Ube3a-YFP allele
